In US11590116B2 (THERAVANCE BIOPHARMA R&D IP, LLC, priority 2019, dated 2023):
Like-named read-outs stand apart in the source and are kept apart here.

Columns and labels:
[1] = test system: TGF-β-stimulated SMAD3 phosphorylation in BEAS-2B cells; test: Cellular ALK5 potency assay, inhibition of TGF-β stimulated pSMAD3 formation in BEAS-2B cells; assay type: cell-based; details: Homo sapiens, read-out: BEAS2B pIC50 (converted)
Summary of the method: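 Potency is reported as pIC50, derived from concentration-dependent reduction of pSMAD3 AlphaLISA signal against TGF-β-stimulated cells without compound. BEAS-2B cells received compound for 1 h before a 30-min stimulation with 10 ng/mL TGF-β.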

[2] = molecular target: T1, recombinant human ALK5 (TGF-βR1) protein (Homo sapiens, UniProt P36897); test: Biochemical ALK5 (TGF-βR1) assay to measure pKi (LANCE Ultra ULight kinase assay); details: apparent pKi from pIC50 by Cheng-Prusoff, read-out: ALK5 pKi (converted)
T1 construct: purchased Life Technologies PR9075A
T1 sequence (P36897 34-503): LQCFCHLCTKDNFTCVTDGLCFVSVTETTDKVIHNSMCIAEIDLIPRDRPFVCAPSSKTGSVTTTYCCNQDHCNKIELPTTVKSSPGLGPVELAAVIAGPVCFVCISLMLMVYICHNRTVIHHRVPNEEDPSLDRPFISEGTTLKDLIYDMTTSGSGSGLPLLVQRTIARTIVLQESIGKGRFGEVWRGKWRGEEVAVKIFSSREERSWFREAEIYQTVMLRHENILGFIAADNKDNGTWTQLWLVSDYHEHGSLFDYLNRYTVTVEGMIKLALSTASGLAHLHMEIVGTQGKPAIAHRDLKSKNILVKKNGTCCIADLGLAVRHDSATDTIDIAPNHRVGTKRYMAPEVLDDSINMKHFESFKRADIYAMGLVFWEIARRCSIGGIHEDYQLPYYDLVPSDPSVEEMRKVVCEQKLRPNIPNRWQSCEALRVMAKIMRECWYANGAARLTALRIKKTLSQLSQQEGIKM
Summary of the method: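 After a 60 min room-temperature preincubation of ALK5 with compound, phosphorylation proceeds 60 min at 37 °C on ATP addition (125 μM as 5× stock). Detection: Eu-labelled phospho-Thr1342 Topo IIα antibody in EDTA buffer, pH 7.0; emission 665 nm.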

[3] = inhibition of TGF-β stimulated pSMAD3 formation, BEAS-2B cells

Ki [2] [nM] | SMILES | IC50 [1, 3] [nM] | IC50 ([1]; BEAS-2B) [nM]
0.0398 to 0.316 | Cc1cccc(-c2n[nH]cc2-c2ccc3ncc(N4CCCN(CC(C)C)CC4)cc3n2)n1 [Compound 320, 7-(4-isobutyl-1,4-diazepan-1-yl)-2-[3-(6-methyl-2-pyridyl)-1H-pyrazol-4-yl]-1,5-naphthyridine] | 200 to 1260 | 
0.0398 to 0.316 | Cc1cccc(-c2n[nH]cc2-c2ccc3ncc(Br)cc3n2)n1 [Compound 323, 7-bromo-2-[3-(6-methyl-2-pyridyl)-1H-pyrazol-4-yl]-1,5-naphthyridine] | < 20 | 
0.398 to 3.16 | Cc1cccc(-c2n[nH]cc2-c2ccc3ncc(CNCCN4CCN(C(C)C)CC4)cc3n2)n1 [Compound 324, 2-(4-isopropylpiperazin-1-yl)-N-[[6-[3-(6-methyl-2-pyridyl)-1H-pyrazol-4-yl]-1,5-naphthyridin-3-yl]methyl]ethanamine] | 25.1 to 158 | 
0.398 to 3.16 | CNC1CCN(c2cnc3ccc(-c4c(-c5cccc(C)n5)[nH]c5cccnc45)nc3c2)CC1 [Compound 328, N-methyl-1-[6-[2-(6-methyl-2-pyridyl)-1H-pyrrolo[3,2-b]pyridin-3-yl]-1,5-naphthyridin-3-yl]piperidin-4-amine] | 200 to 1260 | 
0.0398 to 0.316 | Cc1nc(-c2n[nH]cc2-c2ccc3ncc(-c4nc5c(s4)CNCC5)cc3n2)ccc1F [Compound 329, 2-[6-[3-(5-fluoro-6-methyl-2-pyridyl)-1H-pyrazol-4-yl]-1,5-naphthyridin-3-yl]-4,5,6,7-tetrahydrothiazolo[5,4-c]pyridine] | 25.1 to 158 | 
0.0398 to 0.316 | Cc1cccc(-c2nn3cc(Cl)ccc3c2-c2ccc3ncc(-c4cn[nH]c4)cc3n2)n1 [Compound 330, 2-[6-chloro-2-(6-methyl-2-pyridyl)pyrazolo[1,5-a]pyridin-3-yl]-7-(1H-pyrazol-4-yl)-1,5-naphthyridine] | 25.1 to 158 | 
0.0398 to 0.316 | Cc1cccc(-c2n[nH]cc2-c2ccc3ncc(-c4cnc(N)s4)cc3n2)n1 [Compound 333, 5-[6-[3-(6-methyl-2-pyridyl)-1H-pyrazol-4-yl]-1,5-naphthyridin-3-yl]thiazol-2-amine] | 25.1 to 158 | 
0.0398 to 0.316 | Cc1nc(-c2n[nH]cc2-c2ccc3ncc(N4CCC(N)C4)cc3n2)ccc1F (centres unmarked) [Compound 334, 1-[6-[3-(5-fluoro-6-methyl-2-pyridyl)-1H-pyrazol-4-yl]-1,5-naphthyridin-3-yl]pyrrolidin-3-amine] | 25.1 to 158 | 
< 0.0316 | Cc1cccc(-c2n[nH]cc2-c2ccc3ncc(N4CCC(N5CCCC5)C4)cc3n2)n1 (centres unmarked) [Compound 336, 2-[3-(6-methyl-2-pyridyl)-1H-pyrazol-4-yl]-7-(3-pyrrolidin-1-ylpyrrolidin-1-yl)-1,5-naphthyridine] | 25.1 to 158 | 
0.0398 to 0.316 | Cc1cccc(-c2n[nH]cc2-c2ccc3ncc(-c4nnn5c4CNCC5)cc3c2)n1 [Compound 343, 6-[3-(6-methyl-2-pyridyl)-1H-pyrazol-4-yl]-3-(4,5,6,7-tetrahydrotriazolo[1,5-a]pyrazin-3-yl)quinoline] | 25.1 to 158 | 
< 0.0316 | Cc1cccc(-c2n[nH]cc2-c2ccc3ncc(-c4ccc(=O)n(C)c4)cc3n2)n1 [Compound 345, 1-methyl-5-[6-[3-(6-methyl-2-pyridyl)-1H-pyrazol-4-yl]-1,5-naphthyridin-3-yl]pyridin-2-one] | < 20 | 
< 0.0316 | CCc1cccc(-c2n[nH]cc2-c2ccc3ncc(N4CCC(N(C)C)CC4)cc3n2)n1 [Compound 348, 1-[6-[3-(6-ethyl-2-pyridyl)-1H-pyrazol-4-yl]-1,5-naphthyridin-3-yl]-N,N-dimethyl-piperidin-4-amine] | 25.1 to 158 | 

Further lines, the molecule ahead of its results:

SMILES | Ki [2] [nM] | IC50 [1, 3] [nM] | IC50 ([1]; BEAS-2B) [nM]
COc1cnc2ccc(-c3c[nH]nc3-c3cccc(C)n3)nc2c1 [Compound 321, 7-methoxy-2-[3-(6-methyl-2-pyridyl)-1H-pyrazol-4-yl]-1,5-naphthyridine] | < 0.0316 | < 20 | 
COC(=O)CC1CN(CCNc2cnc3ccc(-c4nc[nH]c4-c4cccc(C)n4)cc3c2)CCN1 (centres unmarked) [Compound 322, methyl 2-[4-[2-[[6-[5-(6-methyl-2-pyridyl)-1H-imidazol-4-yl]-3-quinolyl]amino]ethyl]piperazin-2-yl]acetate] | 0.0398 to 0.316 | 200 to 1260 | 
Cc1cccc(-c2n[nH]cc2-c2ccc3ncc(-c4cn(Cc5cnc6c(c5)CNCC6)nn4)cc3n2)n1 [Compound 325, 2-[3-(6-methyl-2-pyridyl)-1H-pyrazol-4-yl]-7-[1-(5,6,7,8-tetrahydro-1,6-naphthyridin-3-ylmethyl)triazol-4-yl]-1,5-naphthyridine] | < 0.0316 | 200 to 1260 | 
Cc1cccc(-c2nc3ccccn3c2-c2ccc3ncc(N4CCC(N5CCN(C)CC5)CC4)cc3n2)n1 [Compound 326, 7-[4-(4-methylpiperazin-1-yl)-1-piperidyl]-2-[2-(6-methyl-2-pyridyl)imidazo[1,2-a]pyridin-3-yl]-1,5-naphthyridine] | 0.0398 to 0.316 | 25.1 to 158 | 
CNCCn1cc(-c2cnc3ccc(-c4c(-c5cccc(C)n5)nn5c4CNCC5)cc3c2)cn1 [Compound 327, N-methyl-2-[4-[6-[2-(6-methyl-2-pyridyl)-4,5,6,7-tetrahydropyrazolo[1,5-a]pyrazin-3-yl]-3-quinolyl]pyrazol-1-yl]ethanamine] | 0.0398 to 0.316 | 200 to 1260 | 
Cc1nc(-c2n[nH]cc2-c2ccc3ncc(-c4cnc5n4CCN5)cc3n2)ccc1F [Compound 332, 7-(6,7-dihydro-5H-imidazo[1,2-a]imidazol-3-yl)-2-[3-(5-fluoro-6-methyl-2-pyridyl)-1H-pyrazol-4-yl]-1,5-naphthyridine] | < 0.0316 | 25.1 to 158 | 
Cc1cccc(-c2n[nH]cc2-c2ccc3ncc(N4CCC(N5CCCC5)CC4)cc3n2)n1 [Compound 335, 2-(3-(6-methylpyridin-2-yl)-1H-pyrazol-4-yl)-7-(4-(pyrrolidin-1-yl)piperidin-1-yl)-1,5-naphthyridine] | < 0.0316 | 25.1 to 158 | 
Cc1cccc(-c2[nH]ncc2-c2ccc3ncc(C(=O)NC4CCNCC4)cc3n2)n1 [Compound 337, 6-[5-(6-methyl-2-pyridyl)-1H-pyrazol-4-yl]-N-(4-piperidyl)-1,5-naphthyridine-3-carboxamide] | 0.0398 to 0.316 | 200 to 1260 | 
Cc1cccc(-c2[nH]cnc2-c2ccc3ncc(Nc4nc5n(n4)CCNC5)cc3c2)n1 [Compound 338, 6-(5-(6-methylpyridin-2-yl)-1H-imidazol-4-yl)-N-(5,6,7,8-tetrahydro-[1,2,4]triazolo[1,5-a]pyrazin-2-yl)quinolin-3-amine] | 0.0398 to 0.316 |  | 200 to 1260
Cc1cccc(-c2[nH]nnc2-c2ccc3ncc(N4CCCNCC4)cc3c2)n1 [Compound 339, 3-(1,4-diazepan-1-yl)-6-[5-(6-methyl-2-pyridyl)-1H-triazol-4-yl]quinoline] | 0.398 to 3.16 | 200 to 1260 | 
Cc1cccc(-c2n[nH]cc2-c2ccc3ncc(-c4cn(CCN5CCOCC5)nn4)cc3n2)n1 [Compound 340, 4-[2-[4-[6-[3-(6-methyl-2-pyridyl)-1H-pyrazol-4-yl]-1,5-naphthyridin-3-yl]triazol-1-yl]ethyl]morpholine] | 0.0398 to 0.316 | 25.1 to 158 | 
Cc1cccc(-c2n[nH]cc2-c2ccc3ncc(-c4ccnc(C(C)(C)C#N)c4)cc3n2)n1 [Compound 341, 2-methyl-2-[4-[6-[3-(6-methyl-2-pyridyl)-1H-pyrazol-4-yl]-1,5-naphthyridin-3-yl]-2-pyridyl]propanenitrile] | < 0.0316 | < 20 | 
CNCc1cncc(-c2cnc3ccc(-c4nc[nH]c4-c4cccc(C)n4)cc3c2)c1 [Compound 342, N-methyl-1-[5-[6-[5-(6-methyl-2-pyridyl)-1H-imidazol-4-yl]-3-quinolyl]-3-pyridyl]methanamine] | 0.0398 to 0.316 | 25.1 to 158 | 
Cc1cccc(-c2[nH]cnc2-c2ccc3ncc(N4CCN(C)C(CC(=O)O[C@@H]5CCNC5)C4)cc3c2)n1 (stereo partly drawn) [Compound 344, [(3R)-pyrrolidin-3-yl]2-[1-methyl-4-[6-[5-(6-methyl-2-pyridyl)-1H-imidazol-4-yl]-3-quinolyl]piperazin-2-yl]acetate] | 0.0398 to 0.316 | 200 to 1260 | 
Cc1cccc(-c2[nH]nnc2-c2ccc3ncc(N4CCC(N5CCN(C)CC5)CC4)cc3c2)n1 [Compound 346, 3-[4-(4-methylpiperazin-1-yl)-1-piperidyl]-6-[5-(6-methyl-2-pyridyl)-1H-triazol-4-yl]quinoline] | 0.0398 to 0.316 | 25.1 to 158 | 
Cc1cccc(-c2n[nH]cc2-c2ccc3ncc(N4CCCNCC4)cc3n2)n1 [Compound 349, 7-(1,4-diazepan-1-yl)-2-[3-(6-methyl-2-pyridyl)-1H-pyrazol-4-yl]-1,5-naphthyridine] | 0.0398 to 0.316 | 25.1 to 158 | 
